# Measurements reported in US11058688B2, “Imidazopiperazine inhibitors of transcription activating proteins” (Board of Regents, The University of Texas System, priority 2018, dated 2021).
# Key:
# [1] = target: GST-CBP(1081-1197) bromodomain (Homo sapiens (Human), UniProt Q92793); experiment: CBP AlphaScreen Assay; settings: binding to biotin-H4(1-21) Ac-K5/8/12/16 peptide
# In short: (§1)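 IC50 values derived by variable-slope dose-response fit between negative and DMSO control signals. AlphaScreen signal reports bromodomain association with an H4(1-21) peptide acetylated at K5, K8, K12 and K16.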
# BRD4(49-170) bromodomain = BRD4(49-170) bromodomain (Homo sapiens (Human), UniProt O60885); experiment: BRD4 AlphaScreen Assay; settings: binding to biotin-H4(1-21) Ac-K5/8/12/16 peptide
# In short: as §1
# GST-CBP(1081-1197) bromodomain, sequence (Q92793 1081-1197): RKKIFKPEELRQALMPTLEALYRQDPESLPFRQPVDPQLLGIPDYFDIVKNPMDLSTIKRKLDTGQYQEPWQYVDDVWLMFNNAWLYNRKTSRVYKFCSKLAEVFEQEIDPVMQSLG
SMILES,IC50 [1] [µM],IC50 (BRD4(49-170) bromodomain) [µM]
"CNC(=O)N1CCn2c(C3CC(F)(F)C3)nc(-c3cccc4cc(C5CCOCC5)ncc34)c2C1 [Example 85, 3-(3,3-difluorocyclobutyl)-N-methyl-1-(3-(tetrahydro-2H-pyran-4-yl)isoquinolin-8-yl)-5,6-dihydroimidazo[1,5-a]pyrazine-7(8H)-carboxamide]",0.015,18.1
"CNC(=O)N1CCn2c(C3CCOCC3)nc(-c3c(F)ccc4cc(-c5cnc(C)s5)ncc34)c2C1 [Example 89, 1-(7-fluoro-3-(2-methylthiazol-5-yl)isoquinolin-8-yl)-N-methyl-3-(tetrahydro-2H-pyran-4-yl)-5,6-dihydroimidazo[1,5-a]pyrazine-7(8H)-carboxamide]",0.002,6.84
"CNC(=O)N1CCn2c(C3CC(F)(F)C3)nc(-c3c(F)ccc4cc(-c5cnc(C)s5)ncc34)c2C1 [Example 92, 3-(3,3-difluorocyclobutyl)-1-(7-fluoro-3-(2-methylthiazol-5-yl)isoquinolin-8-yl)-N-methyl-5,6-dihydroimidazo[1,5-a]pyrazine-7(8H)-carboxamide]",0.01,> 25
"CNC(=O)N1CCn2c(C3CCC(F)(F)CC3)nc(-c3c(F)ccc4cc(-c5cnc(C)s5)ncc34)c2C1 [Example 93, 3-(4,4-difluorocyclohexyl)-1-(7-fluoro-3-(2-methylthiazol-5-yl)isoquinolin-8-yl)-N-methyl-5,6-dihydroimidazo[1,5-a]pyrazine-7(8H)-carboxamide]",0.002,> 25
"CNC(=O)N1CCn2c(C3CCOCC3)nc(-c3c(F)ccc4cc(-c5ccn(C)n5)ncc34)c2C1 [Example 94, 1-(7-fluoro-3-(1-methyl-1H-pyrazol-3-yl)isoquinolin-8-yl)-N-methyl-3-(tetrahydro-2H-pyran-4-yl)-5,6-dihydroimidazo[1,5-a]pyrazine-7(8H)-carboxamide]",0.012,> 25
"CNC(=O)N1CCn2c(C3CCOCC3)nc(-c3cccc4cc(-c5cnc(C)s5)ncc34)c2C1 [Example 95, N-methyl-1-(3-(2-methylthiazol-5-yl)isoquinolin-8-yl)-3-(tetrahydro-2H-pyran-4-yl)-5,6-dihydroimidazo[1,5-a]pyrazine-7(8H)-carboxamide]",0.001,3.48

# The next lines start with the values.
IC50 [1] [µM],IC50 (BRD4(49-170) bromodomain) [µM],SMILES
0.016,19.4,"CNC(=O)N1CCn2c(C3CCOCC3)nc(-c3c(F)ccc4cc(C5CCOCC5)ncc34)c2C1 [Example 83, 1-(7-fluoro-3-(tetrahydro-2H-pyran-4-yl)isoquinolin-8-yl)-N-methyl-3-(tetrahydro-2H-pyran-4-yl)-5,6-dihydroimidazo[1,5-a]pyrazine-7(8H)-carboxamide]"
0.004,12.1,"CNC(=O)N1CCn2c(C3CCC(F)(F)CC3)nc(-c3cccc4cc(C5CCOCC5)ncc34)c2C1 [Example 84, 3-(4,4-difluorocyclohexyl)-N-methyl-1-(3-(tetrahydro-2H-pyran-4-yl)isoquinolin-8-yl)-5,6-dihydroimidazo[1,5-a]pyrazine-7(8H)-carboxamide]"
0.004,10.2,"CNC(=O)N1CCn2c(C3CCC(F)(F)CC3)nc(-c3c(F)ccc4cc(C5CCOCC5)ncc34)c2C1 [Example 90, 3-(4,4-difluorocyclohexyl)-1-(7-fluoro-3-(tetrahydro-2H-pyran-4-yl)isoquinolin-8-yl)-N-methyl-5,6-dihydroimidazo[1,5-a]pyrazine-7(8H)-carboxamide]"
0.048,22.4,"CNC(=O)N1CCn2c(C3CC(F)(F)C3)nc(-c3c(F)ccc4cc(C5CCOCC5)ncc34)c2C1 [Example 91, 3-(3,3-difluorocyclobutyl)-1-(7-fluoro-3-(tetrahydro-2H-pyran-4-yl)isoquinolin-8-yl)-N-methyl-5,6-dihydroimidazo[1,5-a]pyrazine-7(8H)-carboxamide]"
